The source of these data is ChEMBL document CHEMBL1129711, “Nonpeptide GPIIb/IIIa inhibitors. 10. Centrally constrained alpha-sulfonamides are potent inhibitors of platelet aggregation” (Bioorg Med Chem Lett, 1996).

Experiment [1] concerns the target T1, Integrin alpha-IIb/beta-3 (Homo sapiens, UniProt P05106+P08514). The experiment in a line: Binding affinity against alpha IIb beta-3 integrin by [125I]-L-692,884 displacement. The class given is protein-complex assay.
The species entered for the next experiment is Homo sapiens. The experiment in a line: In vitro inhibition of ADP-induced human platelet aggregation. The class given is functional.
Experiment [2] has as its target T1, Integrin alpha-IIb/beta-3. The experiment in a line: Binding affinity against alpha IIb beta-3 integrin in the presence of L-736622. Format: protein-complex assay.
Target sequence in this assay (P05106 27-788 limits assumed): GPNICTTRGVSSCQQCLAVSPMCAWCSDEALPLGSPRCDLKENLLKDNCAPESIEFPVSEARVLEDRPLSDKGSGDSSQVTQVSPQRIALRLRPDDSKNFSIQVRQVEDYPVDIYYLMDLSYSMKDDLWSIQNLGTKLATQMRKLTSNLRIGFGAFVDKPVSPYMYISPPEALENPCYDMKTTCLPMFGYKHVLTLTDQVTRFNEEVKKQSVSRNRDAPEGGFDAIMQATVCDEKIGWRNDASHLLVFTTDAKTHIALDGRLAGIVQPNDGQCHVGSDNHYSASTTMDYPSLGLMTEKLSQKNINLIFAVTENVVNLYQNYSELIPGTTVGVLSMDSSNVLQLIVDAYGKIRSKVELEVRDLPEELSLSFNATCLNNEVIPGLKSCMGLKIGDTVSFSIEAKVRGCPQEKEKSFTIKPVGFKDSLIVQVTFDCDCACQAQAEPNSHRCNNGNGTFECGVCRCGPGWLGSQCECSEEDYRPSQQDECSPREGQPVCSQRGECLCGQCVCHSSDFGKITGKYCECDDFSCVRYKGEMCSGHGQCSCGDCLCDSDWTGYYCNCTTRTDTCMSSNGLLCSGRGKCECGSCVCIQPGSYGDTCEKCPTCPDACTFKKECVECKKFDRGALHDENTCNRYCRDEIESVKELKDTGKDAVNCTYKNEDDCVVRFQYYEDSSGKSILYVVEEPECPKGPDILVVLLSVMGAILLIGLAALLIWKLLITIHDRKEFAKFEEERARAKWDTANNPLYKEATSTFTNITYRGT
Target sequence in this assay (P08514 32-887 limits assumed): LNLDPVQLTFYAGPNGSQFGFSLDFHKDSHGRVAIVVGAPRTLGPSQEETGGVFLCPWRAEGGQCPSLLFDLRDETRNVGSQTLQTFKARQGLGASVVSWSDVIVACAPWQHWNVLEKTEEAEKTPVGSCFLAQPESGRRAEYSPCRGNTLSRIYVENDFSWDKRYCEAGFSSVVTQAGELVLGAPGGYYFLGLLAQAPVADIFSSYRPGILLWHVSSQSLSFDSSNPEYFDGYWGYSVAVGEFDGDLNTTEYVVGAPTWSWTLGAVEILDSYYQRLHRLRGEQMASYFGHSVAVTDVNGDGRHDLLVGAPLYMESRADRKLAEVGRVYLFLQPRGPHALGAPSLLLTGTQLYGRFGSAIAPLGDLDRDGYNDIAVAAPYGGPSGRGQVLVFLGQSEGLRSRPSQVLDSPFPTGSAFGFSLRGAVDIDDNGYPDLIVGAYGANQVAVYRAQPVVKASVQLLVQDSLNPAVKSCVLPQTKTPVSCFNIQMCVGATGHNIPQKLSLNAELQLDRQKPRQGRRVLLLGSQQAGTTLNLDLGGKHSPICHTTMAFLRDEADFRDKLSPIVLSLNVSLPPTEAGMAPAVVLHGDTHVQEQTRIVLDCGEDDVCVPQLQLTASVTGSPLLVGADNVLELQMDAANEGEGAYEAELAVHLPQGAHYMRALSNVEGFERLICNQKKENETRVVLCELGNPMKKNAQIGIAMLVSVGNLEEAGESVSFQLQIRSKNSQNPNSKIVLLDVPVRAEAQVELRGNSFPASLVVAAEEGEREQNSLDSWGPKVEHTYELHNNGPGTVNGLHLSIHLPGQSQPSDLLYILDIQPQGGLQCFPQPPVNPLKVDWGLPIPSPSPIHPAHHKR
Target sequence in this assay (P08514 891-1039 limits assumed): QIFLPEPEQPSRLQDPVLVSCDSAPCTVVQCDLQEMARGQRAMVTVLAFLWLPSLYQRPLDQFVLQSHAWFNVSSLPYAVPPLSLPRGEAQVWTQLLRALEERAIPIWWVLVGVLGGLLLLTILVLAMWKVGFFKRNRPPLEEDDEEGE

Each structure is given as a SMILES string.

`CCCCS(=O)(=O)N[C@@H](CNC(=O)c1ccc2c(c1)C(=O)N(CCC1CCNCC1)C2)C(=O)O` (stereo in doubt) [listing 1 of 2 here] showed an ED50 in experiment [1] of 5.5 nM.
In experiment [1], `O=C(NC[C@H](NS(=O)(=O)c1ccccc1C(=O)O)C(=O)O)c1ccc2c(c1)C(=O)N(CCC1CCNCC1)C2` displayed an ED50 of 0.83 nM. Further, the midpoint of inhibition in the experiment filed under Homo sapiens, the IC50, lay at 15 nM. Further, in experiment [2], the Kd (commonly a measure of binding affinity in units of concentration) was determined as 6.4 nM.
The matching figures for `CCOCCS(=O)(=O)N[C@@H](CNC(=O)c1ccc2c(c1)C(=O)N(CCC1CCNCC1)C2)C(=O)O`: 1.1 nM, 8 nM and 5.1 nM.
Taken in the same sequence, the figures for `O=C(NC[C@H](NS(=O)(=O)c1cccs1)C(=O)O)c1ccc2c(c1)C(=O)N(CCC1CCNCC1)C2` were 0.53 nM, 7 nM and 7.7 nM.
Taken in the same sequence, the figures for `CC(C)CS(=O)(=O)N[C@@H](CNC(=O)c1ccc2c(c1)C(=O)N(CCC1CCNCC1)C2)C(=O)O` were 1.2 nM, 9 nM and 7.5 nM.
As to `CCCCNS(=O)(=O)N[C@@H](CNC(=O)c1ccc2c(c1)C(=O)N(CCC1CCNCC1)C2)C(=O)O`, in experiment [1], the ED50 is 2.8 nM. In addition, half-maximal inhibition in the experiment filed under Homo sapiens (IC50) was put at 19 nM. Moreover, the Kd in experiment [2] turned out to be 21 nM.
Taken in the same sequence, the figures for `CCCCNC(=O)N[C@@H](CNC(=O)c1ccc2c(c1)C(=O)N(CCC1CCNCC1)C2)C(=O)O` were 1.4 nM, 16 nM and 6.9 nM.
Turning to `CCCCS(=O)(=O)N[C@@H](CNC(=O)c1ccc2c(c1)C(=O)N(CCC1CCNCC1)C2)C(=O)O` (stereo in doubt; 13) [listing 1 of 2 here], the Kd in experiment [2] was determined as 4.4 nM.
Take `O=C(NC[C@H](NS(=O)(=O)c1ccccc1)C(=O)O)c1ccc2c(c1)C(=O)N(CCC1CCNCC1)C2`: the ED50 in experiment [1] came to 0.33 nM. Moreover, in the experiment listed under Homo sapiens, inhibition was half-maximal at 8 nM (IC50). The Kd in experiment [2] worked out at 3.7 nM.
In experiment [1], `CCCCS(=O)(=O)N[C@@H](CNC(=O)c1ccc2c(c1)C(=O)N(CCC1CCNCC1)C2)C(=O)O` (stereo in doubt; 13) [listing 2 of 2 here] yielded an ED50 of 1.3 nM.
In turn, `O=C(NCc1ccccc1)N[C@@H](CNC(=O)c1ccc2c(c1)C(=O)N(CCC1CCNCC1)C2)C(=O)O` registered an ED50 in experiment [1] of 1.2 nM. Further, in the experiment filed under Homo sapiens, the IC50 (usually the midpoint of a concentration-inhibition curve) was 10 nM. For the same molecule, the Kd in experiment [2] was 6 nM.
Taken in the same sequence, the figures for `CS(=O)(=O)N[C@@H](CNC(=O)c1ccc2c(c1)C(=O)N(CCC1CCNCC1)C2)C(=O)O` were 3.4 nM, 14 nM and 7.4 nM.
Taken in the same sequence, the figures for `CCCCCC(=O)N[C@@H](CNC(=O)c1ccc2c(c1)C(=O)N(CCC1CCNCC1)C2)C(=O)O` were 4.2 nM, 13 nM and 6.4 nM.
Taken in the same sequence, the figures for `O=C(O)c1ccc(S(=O)(=O)N[C@@H](CNC(=O)c2ccc3c(c2)C(=O)N(CCC2CCNCC2)C3)C(=O)O)cc1` were 2 nM, 7 nM and 15 nM.
In turn, `CCCCS(=O)(=O)N[C@@H](Cc1ccc(OCCCCC2CCNCC2)cc1)C(=O)O` [TIROFIBAN] had an ED50 in experiment [1] of 0.97 nM. 11 nM corresponded to half-maximal inhibition in the experiment filed under Homo sapiens (IC50).
In the experiment listed under Homo sapiens, `CCCCS(=O)(=O)N[C@@H](CNC(=O)c1ccc2c(c1)C(=O)N(CCC1CCNCC1)C2)C(=O)O` (stereo in doubt) [listing 2 of 2 here] showed a half-inhibitory concentration (IC50) of 14 nM. Besides, in experiment [2], the Kd stood at 8.8 nM.
Regarding `O=C(O)CCNC(=O)c1ccc2c(c1)C(=O)N(CCC1CCNCC1)C2`, in experiment [2], the Kd was 100 nM.
`O=C(NC[C@H](NS(=O)(=O)c1cccnc1)C(=O)O)c1ccc2c(c1)C(=O)N(CCC1CCNCC1)C2` gave an ED50 in experiment [1] of 0.38 nM. The molecule also showed an IC50 in the experiment filed under Homo sapiens of 15 nM. For the same molecule, the Kd in experiment [2] was 3.6 nM.
Taken in the same sequence, the figures for `CCCCCS(=O)(=O)N[C@@H](CNC(=O)c1ccc2c(c1)C(=O)N(CCC1CCNCC1)C2)C(=O)O` were 0.88 nM, 9 nM and 7.6 nM.
Taken in the same sequence, the figures for `O=C(NC[C@H](NS(=O)(=O)Cc1ccccc1)C(=O)O)c1ccc2c(c1)C(=O)N(CCC1CCNCC1)C2` were 1.6 nM, 4 nM and 12 nM.
